Reference: patent US9447136B2, “Semisynthetic derivatives of Nystatin A1” (BLIRT S.A., priority 2012, dated 2016)
Converted amounts (≈) assume the structure as drawn. Read-outs that look alike come from different tables or passages of the source.

Key:
[1] = test system: Aspergillus niger LOCK E201; assay: Antifungal activity in vitro, serial dilution in RPMI 1640; format: cell-based; settings: Table 2B
Method in brief: (§1)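 Optical density at 531 nm served as the growth read-out after serial dilution of compound in RPMI 1640 buffered to pH 7.0 per the NCCLS M27-A2 standard. IC50 values came from concentration–A531 plots (50% of control), MIC values from the lowest concentration holding A531 at no more than 20% of control.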

[2] = test system: Candida albicans ATCC 10231; assay: as above; format: cell-based; settings: for Antifungal activity Candida albicans ATCC 10231 IC50 / Antifungal activity Candida albicans ATCC 10231 MIC: Table 2A, RPMI 1640, pH 7.0; for Antifungal activity Candida albicans ATCC 10231 IC50: A531 50% of control; for Antifungal activity Candida albicans ATCC 10231 MIC: A531 at most 20% of control; for MIC Candida albicans ATCC 10231: Table 2B
Method in brief: as §1

Candida arborea KKP 319 = assay: as above; format: cell-based; settings: Table 2B
Method in brief: as §1

[3] = test system: Candida dubliniensis CBS 7987; assay: as above; format: cell-based; settings: Table 2B
Method in brief: as §1

[4] = test system: Candida glabrata DSM 11226; assay: as above; format: cell-based; settings: Table 2A; RPMI 1640, pH 7.0
Method in brief: as §1

Candida krusei DSM 6128 = assay: as above; format: cell-based; settings: Table 2A; RPMI 1640, pH 7.0
Method in brief: as §1

[5] = test system: Candida lipolytica KKP 322; assay: as above; format: cell-based; settings: Table 2B
Method in brief: as §1

[6] = test system: Candida lusitaniae DSM 70102; assay: as above; format: cell-based; settings: Table 2A; RPMI 1640, pH 7.0
Method in brief: as §1

[7] = test system: Candida parapsilosis DSM 5784; assay: as above; format: cell-based; settings: Table 2B
Method in brief: as §1

[8] = test system: Candida pseudotropicalis KKP 324; assay: as above; format: cell-based; settings: Table 2B
Method in brief: as §1

[9] = test system: Candida quilliermondii DSM 11947; assay: as above; format: cell-based; settings: Table 2B
Method in brief: as §1

[10] = test system: Candida stellatoidea CBS 1905; assay: as above; format: cell-based; settings: Table 2B
Method in brief: as §1

[11] = test system: Candida tropicalis KKP 334; assay: as above; format: cell-based; settings: Table 2A; RPMI 1640, pH 7.0
Method in brief: as §1

[12] = test system: Saccharomyces cerevisiae ATCC 9763; assay: as above; format: cell-based; settings: for Antifungal activity Saccharomyces cerevisiae ATCC 9763 MIC: Table 2A, RPMI 1640, pH 7.0, A531 at most 20% of control; for MIC Saccharomyces cerevisiae ATCC 9763: Table 2B
Method in brief: as §1

[13] = test system: Trichoderma viride LOCK E159; assay: as above; format: cell-based; settings: Table 2B
Method in brief: as §1

Human erythrocytes = assay: Hemotoxicity (hemolytic activity); settings: human erythrocytes
Method in brief: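 Human erythrocytes in saline (2×10^7/ml) were incubated with serially diluted compound at 37 °C for 30 min, then centrifuged. Released hemoglobin was read as A540 against 0.1% Triton X-100 as full hemolysis. EH50 is the interpolated concentration giving 50% of the control A540.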

Candida albicans 5674 = assay: Antifungal activity towards resistant (MDR) strains; format: cell-based; settings: C. albicans 5674 overexpressing CDR1 and CDR2
Method in brief: (§2)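 Optical density at λ=660 nm served as read-out in a broth microdilution test (buffered RPMI 1640, M27-A2 standard procedure). MIC corresponded to the concentration reducing A660 to no more than 20% of the control sample value.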

Candida albicans B3 = assay: as above; format: cell-based; settings: fluconazole sensitive, parent strain for B4
Method in brief: as §2

Candida albicans B4 = assay: as above; format: cell-based; settings: fluconazole-resistant due to the overexpression of CaMDR1
Method in brief: as §2

Candida albicans F2 = assay: as above; format: cell-based; settings: fluconazole sensitive, parent strain for F5
Method in brief: as §2

Candida albicans F5 = assay: as above; format: cell-based; settings: fluconazole-resistant due to the overexpression of CaMDR1 and ERG11
Method in brief: as §2

Candida albicans Gu4 = assay: as above; format: cell-based; settings: fluconazole sensitive, parent strain for Gu5
Method in brief: as §2

Candida albicans Gu5 = assay: as above; format: cell-based; settings: fluconazole-resistant due to the overexpression of CDR1 and CDR2
Method in brief: as §2

Candida albicans STY19 = assay: as above; format: cell-based; settings: 5674 mutant derivative, deletion of CDR1
Method in brief: as §2

Candida albicans STY31 = assay: as above; format: cell-based; settings: 5674 mutant derivative, deletion of CDR1 and CDR2
Method in brief: as §2

Candida albicans STY7 = assay: as above; format: cell-based; settings: 5674 mutant derivative, deletion of CDR2
Method in brief: as §2

CCRF-CEM = assay: Cytotoxic activity against mammalian cells in tissue culture (MTT); format: cell-based, human
Method in brief: (§3)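 Cells at 1.2×10^4/well were exposed to serial 2× DMSO dilutions for 120 h at 37 °C: CCRF-CEM in RPMI 1640 + 10% FBS, HepG2 in MEM + 10% FBS, LLC-PK1 in Medium 199 + 3% FBS. MTT was added for 4 h and A540 read. IC50 is the concentration halving A540 versus DMSO control.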

HepG2 = assay: as above; format: cell-based, human
Method in brief: as §3

LLC-PK1 = assay: as above; format: cell-based, pig
Method in brief: as §3

C[C@@H]1[C@H](O)[C@@H](C)/C=C/C=C/CC/C=C/C=C/C=C/C=C/C(O[C@H]2O[C@H](C)[C@@H](O)[C@H](N)[C@@H]2O)CC2O[C@](O)(CC(O)C(O)CCC(O)CC(O)CC(O)CC(=O)O[C@H]1C)CC(O)C2C(=O)O (stereo partly drawn) [Nystatin, Nystatin A1]
MIC Aspergillus niger LOCK E201 [1]: 1 µg/mL (≈ 1.08 µM) | Antifungal activity Candida albicans ATCC 10231 IC50 [2]: 0.23 µg/mL | Antifungal activity Candida albicans ATCC 10231 MIC [2]: 0.5 µg/mL | MIC Candida albicans ATCC 10231 [2]: 0.5 µg/mL (≈ 0.54 µM) | MIC Candida arborea KKP 319 (Candida arborea KKP 319): 1 µg/mL (≈ 1.08 µM) | MIC Candida dubliniensis CBS 7987 [3]: 1 µg/mL (≈ 1.08 µM) | Antifungal activity Candida glabrata DSM 11226 MIC [4]: 1 µg/mL | Antifungal activity Candida krusei DSM 6128 MIC (Candida krusei DSM 6128): 1 µg/mL | MIC Candida lipolytica KKP 322 [5]: 0.5 µg/mL (≈ 0.54 µM) | Antifungal activity Candida lusitaniae DSM 70102 MIC [6]: 0.25 µg/mL | MIC Candida parapsilosis DSM 5784 [7]: 1 µg/mL (≈ 1.08 µM) | MIC Candida pseudotropicalis KKP 324 [8]: 1 µg/mL (≈ 1.08 µM) | MIC Candida quilliermondii DSM 11947 [9]: 0.5 µg/mL (≈ 0.54 µM) | MIC Candida stellatoidea CBS 1905 [10]: 1 µg/mL (≈ 1.08 µM) | Antifungal activity Candida tropicalis KKP 334 MIC [11]: 0.5 µg/mL | Antifungal activity Saccharomyces cerevisiae ATCC 9763 MIC [12]: 0.5 µg/mL | MIC Saccharomyces cerevisiae ATCC 9763 [12]: 0.5 µg/mL (≈ 0.54 µM) | MIC Trichoderma viride LOCK E159 [13]: 1 µg/mL (≈ 1.08 µM) | % of hemolysis at the concentration 60 μg ml^−1 (Human erythrocytes): 100% | % of hemolysis at the concentration 300 μg ml^−1 (Human erythrocytes; 300 μg ml^−1): 100% | EH10 (Human erythrocytes; concentration causing 10% of hemolysis): 22.13 µg/mL | MIC Candida albicans 5674 (Candida albicans 5674): 1 µg/mL (≈ 1.08 µM) | MIC Candida albicans B3 (Candida albicans B3): 0.5 µg/mL (≈ 0.54 µM) | MIC Candida albicans B4 (Candida albicans B4): 1 µg/mL (≈ 1.08 µM) | MIC Candida albicans F2 (Candida albicans F2): 1 µg/mL (≈ 1.08 µM) | MIC Candida albicans F5 (Candida albicans F5): 1 µg/mL (≈ 1.08 µM) | MIC Candida albicans Gu4 (Candida albicans Gu4): 0.5 µg/mL (≈ 0.54 µM) | MIC Candida albicans Gu5 (Candida albicans Gu5): 1 µg/mL (≈ 1.08 µM) | MIC Candida albicans STY19 (Candida albicans STY19): 1 µg/mL (≈ 1.08 µM) | MIC Candida albicans STY31 (Candida albicans STY31): 1 µg/mL (≈ 1.08 µM) | MIC Candida albicans STY7 (Candida albicans STY7): 1 µg/mL (≈ 1.08 µM) | Cytotoxicity IC50 CCRF-CEM (CCRF-CEM): >100 µg/mL | Cytotoxicity IC50 HepG2 (HepG2): 24.9 ± 2.332 µg/mL | Cytotoxicity IC50 LLC-PK1 (LLC-PK1): >100 µg/mL

N-fructosyl-N-methylnystatin A1 [Compound N28]
MIC Aspergillus niger LOCK E201 [1]: 16 µg/mL | Antifungal activity Candida albicans ATCC 10231 IC50 [2]: 5.80 µg/mL | Antifungal activity Candida albicans ATCC 10231 MIC [2]: 8 µg/mL | MIC Candida albicans ATCC 10231 [2]: 8 µg/mL | MIC Candida arborea KKP 319 (Candida arborea KKP 319): 32 µg/mL | MIC Candida dubliniensis CBS 7987 [3]: 8 µg/mL | Antifungal activity Candida glabrata DSM 11226 MIC [4]: 16 µg/mL | Antifungal activity Candida krusei DSM 6128 MIC (Candida krusei DSM 6128): 16 µg/mL | MIC Candida lipolytica KKP 322 [5]: 8 µg/mL | MIC Candida parapsilosis DSM 5784 [7]: 16 µg/mL | MIC Candida pseudotropicalis KKP 324 [8]: 8 µg/mL | MIC Candida quilliermondii DSM 11947 [9]: 16 µg/mL | MIC Candida stellatoidea CBS 1905 [10]: 8 µg/mL | Antifungal activity Candida tropicalis KKP 334 MIC [11]: 8 µg/mL | Antifungal activity Saccharomyces cerevisiae ATCC 9763 MIC [12]: 4 µg/mL | MIC Saccharomyces cerevisiae ATCC 9763 [12]: 4 µg/mL | MIC Trichoderma viride LOCK E159 [13]: 16 µg/mL | Hemotoxicity BEH50 (Human erythrocytes; 37° C., 30 minutes, concentration causing 50% hemolysis, maximum concentration 300 μg/ml): >250 µg/mL | % of hemolysis at the concentration 60 μg ml^−1 (Human erythrocytes): 0.17% | MIC Candida albicans 5674 (Candida albicans 5674): 16 µg/mL | MIC Candida albicans B3 (Candida albicans B3): 8 µg/mL | MIC Candida albicans B4 (Candida albicans B4): 8 µg/mL | MIC Candida albicans F2 (Candida albicans F2): 8 µg/mL | MIC Candida albicans F5 (Candida albicans F5): 16 µg/mL | MIC Candida albicans Gu4 (Candida albicans Gu4): 8 µg/mL | MIC Candida albicans Gu5 (Candida albicans Gu5): 16 µg/mL | MIC Candida albicans STY19 (Candida albicans STY19): 16 µg/mL | MIC Candida albicans STY31 (Candida albicans STY31): 16 µg/mL | MIC Candida albicans STY7 (Candida albicans STY7): 16 µg/mL | Cytotoxicity IC50 CCRF-CEM (CCRF-CEM; CCRF-CEM, 120 h, MTT): >100 µg/mL | Cytotoxicity IC50 HepG2 (HepG2; HepG2, 120 h, MTT): >100 µg/mL | Cytotoxicity IC50 LLC-PK1 (LLC-PK1; LLC-PK1, 120 h, MTT): >100 µg/mL
